Results from patent US9261498B2, “Biomarker for sensitivity to mTOR inhibitor therapy in kidney cancer” (The Regents of the University of California, priority 2005, dated 2016).

Tested on: mTOR
Assay: Immunoblot of S6 phosphorylation in xenograft tumors
Type: in vivo, SCID mice
Details: parental and knockdown xenografts, 0.1 mg/kg, day 5 of treatment
Protocol: FIGS. 1A-1E. Effects of VHL knockdown on sensitivity to CCI-779. (a) Immunoblotting of lysates derived from shRNA and control (empty vector, V) in SN12C, using antibodies against VHL (both isoforms detected), HIF-1α, HIF-2α, GLUT-1, CA-IX and β-Actin (as a loading control). (b) SN12C-CSCG and SN12C-VHLshRNA cells (1×10^5) were cultured in 10% serum rich media, in the presence of vehicle, 1 or 10 nM of CCI-779 for 5 days. Cell growth was measured by cell counts (n=3). […] (c) SN12C-CSCG (C1) and SN12C-CSCG shVHL RNA (C2) cells were injected into SCID mice at a dose of 1×10^6 cells per mouse (n=30). […] Phosphorylated-S6 protein in SN12C-CSCG and SN12C-VHL shRNA xenograft tumors treated with vehicle or 0.1 mg/kg of CCI-779 was measured by immunoblot C3 and C4). […]
Cells and xenograft tumors were lysed in ECB lysis buffer (see, e.g. Kondo et al., Cancer Cell 1, 237-46 (2002)) or high-detergent buffer (2% SDS), (see, e.g. Chen et al., Nat Med 10, 33-9 (2004)), respectively, supplemented with complete protease and phosphatase inhibitor cocktails (Calbiochem). […] Bound antibody was detected using enhanced chemiluminescence (ECL, Amersham). For VEGF ELISA quantification, cells were plated in 6 well plates (1×10^5 per well). […] Thirty-six hours later, VEGF ELISA (R&D Systems) was performed according to the manufacturer's instructions, using a Fisher Plate reader. […]

CO[C@H]1C[C@@H]2CC[C@@H](C)[C@@](O)(O2)C(=O)C(=O)N2CCCC[C@H]2C(=O)O[C@H]([C@H](C)C[C@@H]2CC[C@@H](OC(=O)C(C)(CO)CO)[C@H](OC)C2)CC(=O)[C@H](C)/C=C(\C)[C@@H](O)[C@@H](OC)C(=O)[C@H](C)C[C@H](C)/C=C/C=C/C=C/1C [CCI-779]
S6 phosphorylation in xenograft tumors: decrease in S6 phosphorylation
